The values below come from patent US20090118274A1, “MONOCYCLIC AMINOPROPYL TETRAHYDRO-PYRAZOLO-PYRIDINE MODULATORS OF CATHEPSIN S” (priority 2007, published 2009).

As usually defined, the IC50 is the concentration that inhibits the measured activity by half.

The structures appear in SMILES notation.

T1 sequence (P25774 115-331): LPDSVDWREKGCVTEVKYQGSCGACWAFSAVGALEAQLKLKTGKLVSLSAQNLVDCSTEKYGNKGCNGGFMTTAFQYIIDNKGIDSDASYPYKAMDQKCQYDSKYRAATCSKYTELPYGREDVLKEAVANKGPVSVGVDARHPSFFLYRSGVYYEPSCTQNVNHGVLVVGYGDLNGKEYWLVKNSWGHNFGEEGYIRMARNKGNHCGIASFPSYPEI

The first experiment has as its target T1, Recombinant human cathepsin S (CatS) (Homo sapiens, UniProt P25774).
T1 construct: made in house
Description: Recombinant human cathepsin S (CatS) fluorogenic substrate inhibition assay. It is filed as biochemical.
Conditions: not given
How it is done:
Recombinant human cathepsin S (CatS) was expressed in the baculovirus system and purified in one step with a thiopropyl-sepharose column. […] The assay is run in 150 mM sodium acetate pH 5.0 containing 1.5 mM DTT and 150 mM NaCl. […] Measurements are taken every min for 20 min. The rate is calculated from the slope of the increase in fluorescence and the percent inhibition is calculated from this.
Consider `CC(C)CCNCc1cc(-c2nn(CC(O)CN3CCC(NS(C)(=O)=O)CC3)c3c2CN(S(C)(=O)=O)CC3)ccc1C(F)(F)F` (centres unmarked) [Example 283, N-{1-[2-Hydroxy-3-(5-methanesulfonyl-3-3-[(3-methyl-butylamino)-methyl]-4-trifluoromethyl-phenyl-4,5,6,7-tetrahydro-pyrazolo[4,3-c]pyridin-1-yl)-propyl]-piperidin-4-yl}-methanesulfonamide], for which the IC50 is 800 nM.

As for `CS(=O)(=O)N1CCc2c(c(-c3ccc(Cl)c(CNC(=O)c4ccc(F)cc4)c3)nn2CC(O)CN2CCC2)C1` (centres unmarked) [Example 73, N-{5-[1-(3-Azetidin-1-yl-2-hydroxy-propyl)-5-methanesulfonyl-4,5,6,7-tetrahydro-1H-pyrazolo[4,3-c]pyridin-3-yl]-2-chloro-benzyl}-4-fluoro-benzamide], the IC50 stood at 200 nM.

`CC(C)CC(=O)NCc1cc(-c2nn(CC(O)CN3CCC(N(C)C)C3)c3c2CN(S(C)(=O)=O)CC3)ccc1C(F)(F)F` (centres unmarked) [Example 249, N-(5-{1-[3-(3-Dimethylamino-pyrrolidin-1-yl)-2-hydroxy-propyl]-5-methanesulfonyl-4,5,6,7-tetrahydro-1H-pyrazolo[4,3-c]pyridin-3-yl}-2-trifluoromethyl-benzyl)-3-methyl-butyramide]: the IC50 was found to be 450 nM.

The experiment is the same for the next values; noted with them: average of results obtained; substrate Z-Valine-Valine-Arginine-AMC 10 μM, pH 5.0; read-out: CatS IC50.
Turning to `CC(C)=CC(=O)NCc1cc(-c2nn(CC(O)CN3CCC(C(C)(C)C)CC3)c3c2CN(S(C)(=O)=O)CC3)ccc1C(F)(F)F` (centres unmarked) [Example 273, 3-Methyl-but-2-enoic acid 5-{1-[3-(4-tert-butyl-piperidin-1-yl)-2-hydroxy-propyl]-5-methanesulfonyl-4,5,6,7-tetrahydro-1H-pyrazolo[4,3-c]pyridin-3-yl}-2-trifluoromethyl-benzylamide], the IC50 is 30 nM.

On to `CS(=O)(=O)N1CCc2c(c(-c3ccc(Cl)c(CC(=O)Nc4ccccc4)c3)nn2CCCN2CCOCC2)C1` [Example 291, 2-{2-Chloro-5-[5-methanesulfonyl-1-(3-morpholin-4-yl-propyl)-4,5,6,7-tetrahydro-1H-pyrazolo[4,3-c]pyridin-3-yl]-phenyl}-N-phenyl-acetamide], for which the IC50 amounted to 2850 nM.

For `CS(=O)(=O)N1CCc2c(c(-c3ccc(C(F)(F)F)c(CNC(=O)c4ccc(F)cc4)c3)nn2CC(O)CN2CCC(O)C2)C1` (centres unmarked) [Example 27, 4-Fluoro-N-(5-{1-[2-hydroxy-3-(3-hydroxy-pyrrolidin-1-yl)-propyl]-5-methanesulfonyl-4,5,6,7-tetrahydro-1H-pyrazolo[4,3-c]pyridin-3-yl}-2-trifluoromethyl-benzyl)-benzamide], the IC50 was determined as 230 nM.

`CS(=O)(=O)N1CCc2c(c(-c3ccc(Cl)c(COCc4ccc(F)cc4)c3)nn2CCCN2CCCC2)C1` [Example 4, 3-[4-Chloro-3-(4-fluoro-benzyloxymethyl)-phenyl]-5-methanesulfonyl-1-(3-pyrrolidin-1-yl-propyl)-4,5,6,7-tetrahydro-1H-pyrazolo[4,3-c]pyridine]: the IC50 was found to be 1450 nM.

For `CC(=O)NC1CCN(CC(O)Cn2nc(-c3ccc(C(F)(F)F)c(CNC(=O)C=C(C)C)c3)c3c2CCN(S(C)(=O)=O)C3)CC1` (centres unmarked) [Example 29, 3-Methyl-but-2-enoic acid 5-{1-[3-(4-acetylamino-piperidin-1-yl)-2-hydroxy-propyl]-5-methanesulfonyl-4,5,6,7-tetrahydro-1H-pyrazolo[4,3-c]pyridin-3-yl}-2-trifluoromethyl-benzylamide], the IC50 amounted to 10 nM.

Take `CS(=O)(=O)N1CCc2c(c(-c3ccc(Cl)c(CNC(=O)c4ccc(F)cc4)c3)nn2CC(O)CN2CCC(N)CC2)C1` (centres unmarked) [Example 83, N-(5-{1-[3-(4-Amino-piperidin-1-yl)-2-hydroxy-propyl]-5-methanesulfonyl-4,5,6,7-tetrahydro-1H-pyrazolo[4,3-c]pyridin-3-yl}-2-chloro-benzyl)-4-fluoro-benzamide]: the IC50 is 270 nM.

Regarding `CS(=O)(=O)N1CCc2c(c(-c3ccc(C(F)(F)F)c(C(=O)Nc4ccccc4)c3)nn2CC(O)CN2CCCC2)C1` (centres unmarked) [Example 192, 5-[1-(2-Hydroxy-3-pyrrolidin-1-yl-propyl)-5-methanesulfonyl-4,5,6,7-tetrahydro-1H-pyrazolo[4,3-c]pyridin-3-yl]-N-phenyl-2-trifluoromethyl-benzamide], the IC50 is 1600 nM.

`CS(=O)(=O)N1CCc2c(c(-c3ccc(C(F)(F)F)c(CNS(=O)(=O)c4ccc(F)cc4)c3)nn2CC(O)CN2CCCC2)C1` (centres unmarked) [Example 194, 4-Fluoro-N-{5-[1-(2-hydroxy-3-pyrrolidin-1-yl-propyl)-5-methanesulfonyl-4,5,6,7-tetrahydro-1H-pyrazolo[4,3-c]pyridin-3-yl]-2-trifluoromethyl-benzyl}-benzenesulfonamide]: the IC50 amounted to 4900 nM.

Consider `CS(=O)(=O)N1CCc2c(c(-c3ccc(C(F)(F)F)c(CNC(=O)c4ccc(F)cc4)c3)nn2CC(O)CN2CCC(CO)CC2)C1` (centres unmarked) [Example 89, 4-Fluoro-N-(5-{1-[2-hydroxy-3-(4-hydroxymethyl-piperidin-1-yl)-propyl]-5-methanesulfonyl-4,5,6,7-tetrahydro-1H-pyrazolo[4,3-c]pyridin-3-yl}-2-trifluoromethyl-benzyl)-benzamide], for which the IC50 is 90 nM.

`CC(C)=CC(=O)NCc1cc(-c2nn(CC(O)CN3CCCC(CN(C)C)C3)c3c2CN(S(C)(=O)=O)CC3)ccc1C(F)(F)F` (centres unmarked) [Example 271, 3-Methyl-but-2-enoic acid 5-{1-[3-(3-dimethylaminomethyl-piperidin-1-yl)-2-hydroxy-propyl]-5-methanesulfonyl-4,5,6,7-tetrahydro-1H-pyrazolo[4,3-c]pyridin-3-yl}-2-trifluoromethyl-benzylamide]: the IC50 was 580 nM.

Regarding `CC(C)CC(=O)NCc1cc(-c2nn(CC(O)CN3CCC(C(C)(C)C)CC3)c3c2CN(S(C)(=O)=O)CC3)ccc1C(F)(F)F` (centres unmarked) [Example 289, N-(5-{1-[3-(4-tert-Butyl-piperidin-1-yl)-2-hydroxy-propyl]-5-methanesulfonyl-4,5,6,7-tetrahydro-1H-pyrazolo[4,3-c]pyridin-3-yl}-2-trifluoromethyl-benzyl)-3-methyl-butyramide], the IC50 turned out to be 90 nM.

Regarding `CC(C)CC(=O)NCc1cc(-c2nn(CC(O)CN3CCC(C(C)(C)C)CC3)c3c2CN(C(=O)CO)CC3)ccc1C(F)(F)F` (centres unmarked) [Example 298, N-{5-[1-[3-(4-tert-Butyl-piperidin-1-yl)-2-hydroxy-propyl]-5-(2-hydroxy-acetyl)-4,5,6,7-tetrahydro-1H-pyrazolo[4,3-c]pyridin-3-yl]-2-trifluoromethyl-benzyl}-3-methyl-butyramide], the IC50 is 80 nM.

Regarding `CS(=O)(=O)N1CCc2c(c(-c3ccc(C(F)(F)F)c(CNCc4ccccc4)c3)nn2CC(O)CN2CCCC2)C1` (centres unmarked) [Example 205, 1-{3-[3-(Benzylamino-methyl)-4-trifluoromethyl-phenyl]-5-methanesulfonyl-4,5,6,7-tetrahydro-pyrazolo[4,3-c]pyridin-1-yl}-3-pyrrolidin-1-yl-propan-2-ol], the IC50 is 1630 nM.

Regarding `CS(=O)(=O)N1CCc2c(c(-c3ccc(C(F)(F)F)c(CNC(=O)c4ccc5ccccc5c4)c3)nn2CC(O)CN2CCCC2)C1` (centres unmarked) [Example 64, Naphthalene-2-carboxylic acid 5-[1-(2-hydroxy-3-pyrrolidin-1-yl-propyl)-5-methanesulfonyl-4,5,6,7-tetrahydro-1H-pyrazolo[4,3-c]pyridin-3-yl]-2-trifluoromethyl-benzylamide], the IC50 worked out at 370 nM.

For the compound `CS(=O)(=O)N1CCc2c(c(-c3ccc(C(F)(F)F)c(CNC(=O)c4ccc(F)cc4)c3)nn2CC(O)CN2CCCC(O)C2)C1` (centres unmarked) [Example 92, 4-Fluoro-N-(5-{1-[2-hydroxy-3-(3-hydroxy-piperidin-1-yl)-propyl]-5-methanesulfonyl-4,5,6,7-tetrahydro-1H-pyrazolo[4,3-c]pyridin-3-yl}-2-trifluoromethyl-benzyl)-benzamide], the IC50 stood at 170 nM.

On to `CCOC(=O)C1CCN(CC(O)Cn2nc(-c3ccc(C(F)(F)F)c(CNC(=O)c4ccc(F)cc4)c3)c3c2CCN(S(C)(=O)=O)C3)CC1` (centres unmarked) [Example 103, 1-[3-(3-{3-[(4-Fluoro-benzoylamino)-methyl]-4-trifluoromethyl-phenyl}-5-methanesulfonyl-4,5,6,7-tetrahydro-pyrazolo[4,3-c]pyridin-1-yl)-2-hydroxy-propyl]-piperidine-4-carboxylic acid ethyl ester], for which the IC50 stood at 30 nM.

Take `CS(=O)(=O)N1CCc2c(c(-c3ccc(Cl)c(CNC(=O)c4ccc(F)cc4)c3)nn2CC(O)CN2CCC(C(N)=O)CC2)C1` (centres unmarked) [Example 12, 1-[3-(3-{4-Chloro-3-[(4-fluoro-benzoylamino)-methyl]-phenyl}-5-methanesulfonyl-4,5,6,7-tetrahydro-pyrazolo[4,3-c]pyridin-1-yl)-2-hydroxy-propyl]-piperidine-4-carboxylic acid amide]: the IC50 was 70 nM.

Turning to `CC(C)CC(=O)NCc1cc(-c2nn(CC(O)CN3CCC(N(C)C)CC3)c3c2CN(S(C)(=O)=O)CC3)ccc1C(F)(F)F` (centres unmarked) [Example 247, N-(5-{1-[3-(4-Dimethylamino-piperidin-1-yl)-2-hydroxy-propyl]-5-methanesulfonyl-4,5,6,7-tetrahydro-1H-pyrazolo[4,3-c]pyridin-3-yl}-2-trifluoromethyl-benzyl)-3-methyl-butyramide], the IC50 was 420 nM.

Consider `CS(=O)(=O)N1CCc2c(c(-c3ccc(Cl)c(CNC(=O)c4ccccc4)c3)nn2CC(O)CN2CCCCCC2)C1` (centres unmarked) [Example 170, N-{5-[1-(3-Azepan-1-yl-2-hydroxy-propyl)-5-methanesulfonyl-4,5,6,7-tetrahydro-1H-pyrazolo[4,3-c]pyridin-3-yl]-2-chloro-benzyl}-benzamide], for which the IC50 was 560 nM.

With `CS(=O)(=O)N1CCc2c(c(-c3ccc(Cl)c(COC(=O)c4ccc(F)cc4)c3)nn2CCCN2CCCC2)C1` [Example 3, 4-Fluoro-benzoic acid 2-chloro-5-[5-methanesulfonyl-1-(3-pyrrolidin-1-yl-propyl)-4,5,6,7-tetrahydro-1H-pyrazolo[4,3-c]pyridin-3-yl]-benzyl ester], the IC50 turned out to be 1320 nM.
